Experimental data: patent US20240199624A1, “COMPOUNDS, COMPOSITIONS, AND METHODS” (CHDI Foundation, Inc., priority 2022, published 2024)

Tests used:
MSH3 (human MutSbeta) = target: T1, MSH3 (human MutSbeta) (Homo sapiens, UniProt P20585); test: ATP binding and cross-linking assay (MSH3 subunit); conditions: [32P]-ATP UV cross-linking to MSH3 subunit of MutSbeta; read-out: cross-link assay IC50 MSH3
T1 construct: Msh3(1-1137), Gene ID J04810.1
Procedure: (§1) ATP binding and cross-linking assay: Enzyme human MutSbeta (Msh2(1-934), Gene ID NP_000242.1, Msh3(1-1137), Gene ID J04810.1) was adjusted to 0.2 μM and, in experiments in the presence of 22 bp biotin-labeled DNA containing a GT-mismatch (purchased from Curia Global, TOP 5′-[…]-3′; BOT 3′-AGTAGCTAGGC - - - CGAAGTCTACC-5′-Biotin), pre-incubated with DNA at equimolar concentration for indicated time and temperature. All reagents were kept on ice. Enzyme was then incubated on ice for the indicated time with 5 nM γ-[^32P]-ATP (Hartmann Analytic, FP-301) or α-[^32P]-ATP (Perkin Elmer, NEG003H250UCSBF4 or Hartmann Analytic, FP-207) and addition of cold ATP (10 μM) or ADP (0.3 μM). The total volume was 20 μL and the samples were handled in Eppendorf reaction tubes. The assay buffer was 25 mM HEPES pH=7.5, 150 mM KCl, 5 mM MgCl2, 5 mM GSH, 0.01% Tween-20. All steps with radioactive ATP were conducted behind appropriate shielding. The samples were then placed on dry ice until they were frozen solid. […] The screen was analyzed in the imager (GE Healthcare, Fluorescent Image Analyzer, Typhoon FLA 7000, #5622514B), and the image was analyzed with imageJ software.

human MutSbeta [1] = target: T2, human MutSbeta (Homo sapiens, UniProt P20585+P43246); test: P33 SPA; type: biochemical; conditions: ATP added to compounds first, then enzyme with DNA; 2 μM ATP, 7 nM enzyme, 60 min 37° C.
T2 construct: Msh2(1-934), Gene ID NP_000242.1; Msh3(1-1137), Gene ID J04810.1
T2 sequence (P43246 whole entry): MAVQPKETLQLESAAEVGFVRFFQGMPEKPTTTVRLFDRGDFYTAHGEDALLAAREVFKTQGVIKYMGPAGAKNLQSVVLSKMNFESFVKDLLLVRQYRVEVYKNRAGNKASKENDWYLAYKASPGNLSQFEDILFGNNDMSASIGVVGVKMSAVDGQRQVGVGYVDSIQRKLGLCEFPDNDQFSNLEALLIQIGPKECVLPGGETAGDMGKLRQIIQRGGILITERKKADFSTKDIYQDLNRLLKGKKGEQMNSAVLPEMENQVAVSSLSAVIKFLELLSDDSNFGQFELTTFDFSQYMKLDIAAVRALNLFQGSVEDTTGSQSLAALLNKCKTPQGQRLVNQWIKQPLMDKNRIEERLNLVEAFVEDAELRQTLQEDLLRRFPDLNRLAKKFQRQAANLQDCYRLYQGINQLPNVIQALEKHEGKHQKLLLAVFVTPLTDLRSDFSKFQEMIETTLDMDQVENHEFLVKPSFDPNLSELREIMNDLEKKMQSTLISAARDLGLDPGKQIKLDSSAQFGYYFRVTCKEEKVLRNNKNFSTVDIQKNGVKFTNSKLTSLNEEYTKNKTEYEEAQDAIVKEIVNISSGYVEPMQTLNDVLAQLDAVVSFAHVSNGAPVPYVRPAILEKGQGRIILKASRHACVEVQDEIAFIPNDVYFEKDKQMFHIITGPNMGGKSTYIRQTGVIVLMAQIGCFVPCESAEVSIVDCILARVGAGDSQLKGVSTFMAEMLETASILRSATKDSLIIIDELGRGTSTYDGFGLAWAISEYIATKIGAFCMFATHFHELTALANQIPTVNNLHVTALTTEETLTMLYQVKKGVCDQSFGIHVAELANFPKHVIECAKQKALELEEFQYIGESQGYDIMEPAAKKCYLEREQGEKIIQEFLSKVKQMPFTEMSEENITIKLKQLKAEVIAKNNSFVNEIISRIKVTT
T2 sequence (P20585 whole entry): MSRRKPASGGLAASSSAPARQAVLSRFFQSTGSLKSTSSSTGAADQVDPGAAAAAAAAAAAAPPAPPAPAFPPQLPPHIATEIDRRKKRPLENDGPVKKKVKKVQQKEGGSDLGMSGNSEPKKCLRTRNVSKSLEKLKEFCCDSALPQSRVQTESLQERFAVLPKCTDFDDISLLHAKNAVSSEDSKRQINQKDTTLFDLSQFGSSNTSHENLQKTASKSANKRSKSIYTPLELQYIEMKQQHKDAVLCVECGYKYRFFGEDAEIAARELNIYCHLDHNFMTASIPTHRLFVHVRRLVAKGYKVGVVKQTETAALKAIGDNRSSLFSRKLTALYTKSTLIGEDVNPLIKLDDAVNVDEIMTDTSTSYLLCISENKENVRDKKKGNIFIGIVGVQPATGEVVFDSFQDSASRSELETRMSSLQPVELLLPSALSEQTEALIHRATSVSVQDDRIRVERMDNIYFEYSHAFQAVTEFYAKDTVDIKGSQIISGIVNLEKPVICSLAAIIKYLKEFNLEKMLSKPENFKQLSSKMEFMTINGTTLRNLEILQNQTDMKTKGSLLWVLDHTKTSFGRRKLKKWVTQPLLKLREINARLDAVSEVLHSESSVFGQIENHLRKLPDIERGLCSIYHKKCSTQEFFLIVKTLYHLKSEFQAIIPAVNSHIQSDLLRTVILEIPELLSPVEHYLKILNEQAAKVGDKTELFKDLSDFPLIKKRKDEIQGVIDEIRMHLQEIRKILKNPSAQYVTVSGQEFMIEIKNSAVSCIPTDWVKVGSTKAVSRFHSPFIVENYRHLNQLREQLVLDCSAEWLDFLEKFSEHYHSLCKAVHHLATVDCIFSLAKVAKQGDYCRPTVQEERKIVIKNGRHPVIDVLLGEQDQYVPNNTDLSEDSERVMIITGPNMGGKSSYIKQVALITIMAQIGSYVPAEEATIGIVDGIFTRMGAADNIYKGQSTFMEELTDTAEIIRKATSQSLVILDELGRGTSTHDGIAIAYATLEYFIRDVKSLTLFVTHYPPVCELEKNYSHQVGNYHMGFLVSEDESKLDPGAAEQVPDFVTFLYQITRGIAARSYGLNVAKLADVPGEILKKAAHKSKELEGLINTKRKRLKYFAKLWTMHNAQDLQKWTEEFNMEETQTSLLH
Procedure: (§2) P33 SPA: Enzyme human MutSbeta (Msh2(1-934), Gene ID NP_000242.1, Msh3(1-1137), Gene ID J04810.1) and 22 bp biotin-labeled DNA containing a GT-mismatch (purchased from Curia Global, TOP 5′-[…]-3′; BOT 3′-AGTAGCTAGGC - - - CGAAGTCTACC-5′-Biotin) were pre-incubated at equimolar concentration for 15 min at room temperature (“RT”) in assay buffer (25 mM HEPES pH=7.5, 150 mM KCl, 2 mM MgCl2, 2 mM GSH, 0.01% Tween-20). ATP (10 μL, 2× final concentration of γ-[^33P]-ATP (final 0.1 nM; Hartmann Analytic, FF-301) and cold ATP (final 2 μM)) was added to compounds (400 nL spotted as concentration response in 100% DMSO into wells of an OptiPlate) and pre-incubated for 30 min at RT. Then, enzyme with DNA was added (10 μL, 2× final concentration of 7 nM) and incubated for 60 min at 37° C. in a total volume of 20 μL per well. Decay of [^33P] with a half-life of 25.4 days was corrected by increasing the concentration of the labelled nucleotide with the appropriate factor; all steps with radioactive ATP were conducted behind appropriate shielding. Then, 20 μL of a 1:2 mix of ammonium molybdate (20 mg/mL Ammonium molybdate in 2.4 M HCl) and SPA beads (ProteinA SPA beads from Perkin Elmer Cat #RPNQ0019 at 7.5 mg/mL+1% azide) was added per well and incubated at RT for 2 min. Then, 40 μL of 7 M CsCl and 0.1 M citrate was added per well and incubated for 20 h at RT before measuring on the MicroBeta (top read mode, 1 min per well). For full plate processing, all reagents were transferred with a pipettor (Selma, CyBio) apart from the final reagent (CsCl+citrate) which was added with a dispenser (MultiFlo, BioTek). Data analysis during assay development was done with Prism GraphPad.

MSH2 (human MutSbeta) = target: T3, MSH2 (human MutSbeta) (Homo sapiens, UniProt P43246); test: ATP binding and cross-linking assay (MSH2 subunit); conditions: [32P]-ATP UV cross-linking to MSH2 subunit of MutSbeta; read-out: cross-link assay IC50 MSH2
T3 construct: Msh2(1-934), Gene ID NP_000242.1
T3 sequence (P43246 whole entry): as the sequence (P43246 whole entry) above
T3 sequence (P20585 whole entry partner): as the sequence (P20585 whole entry) above
Procedure: as §1

human MutSbeta [2] = target: T2, human MutSbeta; test: P33 SPA 1.1; type: biochemical; conditions: Table 5A; enzyme first added to compounds, then ATP
Procedure: as §2
P33 SPA 11: For the SPA 1.1 assay, the addition of reagents was reversed, i.e. enzyme was first added to the compounds and pre-incubated followed by ATP addition; thus, the assay was aligned with ADP Glo 1.1 reagent addition order. The assay was repeated under similar conditions, and the results are shown below in Table 5B. It is contemplated the solubility of the compounds and/or varying test occasions may account for variability of assay results.

T1 sequence (P20585 whole entry): as above
T1 sequence (P43246 whole entry partner): as the sequence (P43246 whole entry) above

IC50 (MSH3 (human MutSbeta)) [µM] | IC50 (human MutSbeta [1]) [µM] | IC50 (MSH2 (human MutSbeta)) [µM] | IC50 (human MutSbeta [2]) [µM] | SMILES
5 | 28.6 | 120 | 55.9 | Cc1ccc(Nc2nc(N3CCN(C)CC3)nc3nccnc23)cc1C [Compound 2, N-(3,4-dimethylphenyl)-2-(4-methylpiperazin-1-yl)pteridin-4-amine]
9 | 23.8 | 215 | 40.5 | CCN1CCN(c2nc(Nc3ccc(Cl)cc3)c3nccnc3n2)CC1 [Compound 4, N-(4-Chlorophenyl)-2-(4-ethylpiperazin-1-yl)pteridin-4-amine]
